Experimental data from PubChem BioAssay (NCI).
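Briefly, cells in 96-well plates were exposed to five compound concentrations for 48 h, and endpoints were estimated by linear interpolation. GI50 marks 50% less growth. TGI: total growth inhibition.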

How the values were obtained:
Assay in all cases: DTP human tumour cell line panel, 48 h
OVCAR-4 ovarian = test system: OVCAR-4 ovarian
A498 renal = test system: A498 renal
NCI-H460 lung = test system: NCI-H460 lung
786-0 renal = test system: 786-0 renal
MOLT-4 leukemia = test system: MOLT-4 leukemia
PC-3 prostate = test system: PC-3 prostate
MALME-3M melanoma = test system: MALME-3M melanoma
LOX IMVI melanoma = test system: LOX IMVI melanoma
COLO 205 colon = test system: COLO 205 colon
HS 578T breast = test system: HS 578T breast
NCI/ADR-RES ovarian = test system: NCI/ADR-RES ovarian
RXF 393 renal = test system: RXF 393 renal
NCI-H23 lung = test system: NCI-H23 lung
EKVX NSCLC = test system: EKVX NSCLC
NCI-H226 lung = test system: NCI-H226 lung
HOP-92 NSCLC = test system: HOP-92 NSCLC
HOP-62 NSCLC = test system: HOP-62 NSCLC
SF-539 CNS = test system: SF-539 CNS
HT29 colon = test system: HT29 colon
M14 melanoma = test system: M14 melanoma
SK-MEL-5 melanoma = test system: SK-MEL-5 melanoma
IGROV1 ovarian = test system: IGROV1 ovarian
HCT-116 colon = test system: HCT-116 colon
SNB-75 CNS = test system: SNB-75 CNS
SF-268 CNS = test system: SF-268 CNS
SK-MEL-2 melanoma = test system: SK-MEL-2 melanoma
SK-OV-3 ovarian = test system: SK-OV-3 ovarian
SN12C renal = test system: SN12C renal
MDA-MB-435 = test system: MDA-MB-435
HCC-2998 colon = test system: HCC-2998 colon
CAKI-1 renal = test system: CAKI-1 renal
HL-60(TB) leukemia = test system: HL-60(TB) leukemia
NCI-H522 lung = test system: NCI-H522 lung
HCT-15 colon = test system: HCT-15 colon
DU-145 prostate = test system: DU-145 prostate
ACHN renal = test system: ACHN renal
A549 NSCLC = test system: A549 NSCLC
SNB-19 CNS = test system: SNB-19 CNS
SW-620 colon = test system: SW-620 colon
MDA-MB-231 breast = test system: MDA-MB-231 breast
TK-10 renal = test system: TK-10 renal
SK-MEL-28 melanoma = test system: SK-MEL-28 melanoma
U251 CNS = test system: U251 CNS
T-47D breast = test system: T-47D breast
OVCAR-3 ovarian = test system: OVCAR-3 ovarian
SF-295 CNS = test system: SF-295 CNS
KM12 colon = test system: KM12 colon
K-562 leukemia = test system: K-562 leukemia
UACC-257 melanoma = test system: UACC-257 melanoma
RPMI-8226 leukemia = test system: RPMI-8226 leukemia
SR leukemia = test system: SR leukemia
BT-549 breast = test system: BT-549 breast

N#CCCCCCn1c2ccccc2c2c3c(c4c5ccccc5[nH]c4c21)C(=O)N(O)C3=O
GI50 (OVCAR-4 ovarian): 1900 nM
TGI (OVCAR-4 ovarian): 13000 nM
GI50 (A498 renal): 1720 nM
TGI (A498 renal): 4940 nM
GI50 (NCI-H460 lung): 1190 nM
TGI (NCI-H460 lung): 4960 nM
GI50 (786-0 renal): 1640 nM
TGI (786-0 renal): 3230 nM
GI50 (MOLT-4 leukemia): 370 nM
TGI (MOLT-4 leukemia): 4330 nM
GI50 (PC-3 prostate): 1390 nM
TGI (PC-3 prostate): 4510 nM
GI50 (MALME-3M melanoma): 1960 nM
TGI (MALME-3M melanoma): 5010 nM
GI50 (LOX IMVI melanoma): 240 nM
TGI (LOX IMVI melanoma): 1440 nM
GI50 (COLO 205 colon): 1850 nM
TGI (COLO 205 colon): 4360 nM
GI50 (HS 578T breast): 4770 nM
TGI (HS 578T breast): > 100000 nM
GI50 (NCI/ADR-RES ovarian): 5520 nM
TGI (NCI/ADR-RES ovarian): > 100000 nM
GI50 (RXF 393 renal): 1700 nM
TGI (RXF 393 renal): 4690 nM
GI50 (NCI-H23 lung): 1550 nM
TGI (NCI-H23 lung): 5540 nM
GI50 (EKVX NSCLC): 1770 nM
TGI (EKVX NSCLC): 5630 nM
GI50 (NCI-H226 lung): 1930 nM
TGI (NCI-H226 lung): 4740 nM
GI50 (HOP-92 NSCLC): 2460 nM
TGI (HOP-92 NSCLC): 5240 nM
GI50 (HOP-62 NSCLC): 468 nM
TGI (HOP-62 NSCLC): 2790 nM
GI50 (SF-539 CNS): 632 nM
TGI (SF-539 CNS): 2050 nM
GI50 (HT29 colon): 1860 nM
TGI (HT29 colon): 4660 nM
GI50 (M14 melanoma): 595 nM
TGI (M14 melanoma): 2510 nM
GI50 (SK-MEL-5 melanoma): 403 nM
TGI (SK-MEL-5 melanoma): 1500 nM
GI50 (IGROV1 ovarian): 1120 nM
TGI (IGROV1 ovarian): 3890 nM
GI50 (HCT-116 colon): 894 nM
TGI (HCT-116 colon): 2370 nM
GI50 (SNB-75 CNS): 684 nM
TGI (SNB-75 CNS): 9550 nM
GI50 (SF-268 CNS): 957 nM
TGI (SF-268 CNS): 48100 nM
GI50 (SK-MEL-2 melanoma): 1830 nM
TGI (SK-MEL-2 melanoma): 4670 nM
GI50 (SK-OV-3 ovarian): 2550 nM
TGI (SK-OV-3 ovarian): 19400 nM
GI50 (SN12C renal): 1290 nM
TGI (SN12C renal): 4920 nM
GI50 (MDA-MB-435): 1190 nM
TGI (MDA-MB-435): 3090 nM
GI50 (HCC-2998 colon): 1820 nM
TGI (HCC-2998 colon): 6060 nM
GI50 (CAKI-1 renal): 1850 nM
TGI (CAKI-1 renal): 4010 nM
GI50 (HL-60(TB) leukemia): 1480 nM
TGI (HL-60(TB) leukemia): 3500 nM
GI50 (NCI-H522 lung): 164 nM
TGI (NCI-H522 lung): 411 nM
GI50 (HCT-15 colon): 2150 nM
TGI (HCT-15 colon): 7820 nM
GI50 (DU-145 prostate): 1060 nM
TGI (DU-145 prostate): 12200 nM
GI50 (ACHN renal): 851 nM
TGI (ACHN renal): 2330 nM
GI50 (A549 NSCLC): 2780 nM
TGI (A549 NSCLC): 8120 nM
GI50 (SNB-19 CNS): 959 nM
TGI (SNB-19 CNS): > 100000 nM
GI50 (SW-620 colon): 1010 nM
TGI (SW-620 colon): 34800 nM
GI50 (MDA-MB-231 breast): 1780 nM
TGI (MDA-MB-231 breast): 5320 nM
GI50 (TK-10 renal): 2200 nM
TGI (TK-10 renal): 7880 nM
GI50 (SK-MEL-28 melanoma): 1800 nM
TGI (SK-MEL-28 melanoma): 6610 nM
GI50 (U251 CNS): 435 nM
TGI (U251 CNS): 1570 nM
GI50 (T-47D breast): 455 nM
TGI (T-47D breast): 8650 nM
GI50 (OVCAR-3 ovarian): 1470 nM
TGI (OVCAR-3 ovarian): 5720 nM
GI50 (SF-295 CNS): 2440 nM
TGI (SF-295 CNS): 6950 nM
GI50 (KM12 colon): 1370 nM
TGI (KM12 colon): 3390 nM
GI50 (K-562 leukemia): 1070 nM
TGI (K-562 leukemia): > 100000 nM
GI50 (UACC-257 melanoma): 1950 nM
TGI (UACC-257 melanoma): 5450 nM
GI50 (RPMI-8226 leukemia): 1040 nM
TGI (RPMI-8226 leukemia): 3470 nM
GI50 (SR leukemia): 434 nM
TGI (SR leukemia): > 100000 nM
GI50 (BT-549 breast): 1840 nM
TGI (BT-549 breast): 9530 nM
